Experimental findings from patent publication US20240182526A1, “COMPOSITIONS AND METHODS FOR MODULTING INFLAMMATORY AND DEGENERATIVE DISORDER” (University of Southern California, priority 2021, published 2024) are described below.

The subject of one experiment is STAT3. The experiment can be described thus: Western blot of STAT3 signaling in osteoarthritic chondrocytes. As to conditions: 4 and 24 hours. It is filed as cell-based, human. How it is done:
(§1) For standard western blot, treated and non-treated cells were lysed in RIPA Lysis and Extraction Buffer (Pierce, Rockford, IL) containing protease inhibitors (Pierce) followed by sonication with a 15-second pulse at a power output of 2 using the VirSonic 100 (SP Industries Company, Warminster, PA). Protein concentrations were determined by BCA protein assay (Pierce). Proteins were resolved with SDS-PAGE utilizing 4-15% Mini-PROTEAN TGX Precast Gels and transferred to Trans-Blot Turbo Transfer Packs with a 0.2-μm pore-size nitrocellulose membrane. The SDS-PAGE running buffer, 4-15% Mini-PROTEAN TGX Precast Gels, Trans-Blot Turbo Transfer Packs with a 0.2-μm pore-size nitrocellulose membrane was purchased from Biorad (Hercules, CA). Nitrocellulose membranes were blocked in 5% nonfat milk in 0.05% (v/v) Tween 20 (PBST) (Corning, Manassas, VA). Membranes were then incubated with primary antibodies p-gp130 Y814 (Evseenko lab, AbClonal), p-AKT (cat #4060, Cell Signaling), p-ERK 1/2 (cat #9106, Cell Signaling), p-Y416-SRC (cat #1246F, Novus Biologicals), p-gp130 (cat #1453R, Bioss USA) and p-NFκBp65 (cat #8242, Cell Signaling), and/or YAP1 (cat #4912, Cell Signaling). Histone H3 (cat #9515, Cell Signaling) was used as loading control. […] Quantification of blots was performed using ImageJ 1.44 followed by Prism9 for analysis.

Another experiment deals with pSRC. Description: Western blot of pSRC in pig articular chondrocytes. It counts as cell-based. The settings on record: pig articular chondrocytes, OSM, 4 and 24 hours. How it is done: (§2) For standard western blot, treated and non-treated cells were lysed in RIPA Lysis and Extraction Buffer (Pierce, Rockford, IL) containing protease inhibitors (Pierce) followed by sonication with a 15-second pulse at a power output of 2 using the VirSonic 100 (SP Industries Company, Warminster, PA). Protein concentrations were determined by BCA protein assay (Pierce). Proteins were resolved with SDS-PAGE utilizing 4-15% Mini-PROTEAN TGX Precast Gels and transferred to Trans-Blot Turbo Transfer Packs with a 0.2-μm pore-size nitrocellulose membrane. The SDS-PAGE running buffer, 4-15% Mini-PROTEAN TGX Precast Gels, Trans-Blot Turbo Transfer Packs with a 0.2-μm pore-size nitrocellulose membrane was purchased from Biorad (Hercules, CA). Nitrocellulose membranes were blocked in 5% nonfat milk in 0.05% (v/v) Tween 20 (PBST) (Corning, Manassas, VA). Membranes were then incubated with primary antibodies p-gp130 Y814 (Evseenko lab, AbClonal), p-AKT (cat #4060, Cell Signaling), p-ERK 1/2 (cat #9106, Cell Signaling), p-Y416-SRC (cat #1246F, Novus Biologicals), p-gp130 (cat #1453R, Bioss USA) and p-NFκBp65 (cat #8242, Cell Signaling), and/or YAP1 (cat #4912, Cell Signaling). Histone H3 (cat #9515, Cell Signaling) was used as loading control. After washing in PBS containing 0.05% (v/v) Tween 20 (PBST), membranes were incubated with rabbit (cat #31460, Thermo Scientific) or mouse IgG-HRP (cat #31430, Thermo Scientific) secondary antibodies. After washing, membranes were developed with the Clarity Western ECL Blotting Substrate (Hercules, CA). Quantification of blots was performed using ImageJ 1.44 followed by Prism9 for analysis.
The studies delineate that gp130 Y814 regulates SRC downstream signaling; since SRC is known to associate with gp130, it was hypothesized that gp130 and SRC are capable of physically interacting on Y814 and hindering this interaction will prevent SRC from signaling. In order to impede this interaction, experiments were performed using an innovative peptide library screen with short and overlapping peptides mimicking the motif of gp130 around Y814 that were individually tested for pSRC downregulation; these peptides ranged from 4-15 amino acids. The peptides contained a protein sequence stretch of consecutive amino acids surrounding gp130 Y814 residue. To test their efficacy, pig articular chondrocytes were stimulated with or without OSM in presence or absence of the peptides followed by co-immunoprecipitation to determine interaction and western blot detecting pSRC activity. […] Due to sequence specificity, the peptide is capable of discriminating among other gp130 regions serving as a competitive inhibitor.

The subject of a further experiment is pSTAT3. Description: Western blot of pSTAT3 in LIF-treated pig articular chondrocytes. As to conditions: 4 and 24 hours. It counts as cell-based. How it is done:
as §1, with “VA).” for “VA). Membranes were then incubated with primary antibodies p-gp130 Y814 (Evseenko lab, AbClonal), p-AKT (cat #4060, Cell Signaling), p-ERK 1/2 (cat #9106, Cell Signaling), p-Y416-SRC (cat #1246F, Novus Biologicals), p-gp130 (cat #1453R, Bioss USA) and p-NFκBp65 (cat #8242, Cell Signaling), and/or YAP1 (cat #4912, Cell Signaling). Histone H3 (cat #9515, Cell Signaling) was used as loading control.”
(§3) Experiments were performed to determine whether R805 is inclined to shift the signaling outputs downstream of gp130 promoting differential regulation similar to genetic ablation of Y814. As a readout, protein levels of phosphorylated SRC, MAPK (ERK 1/2) and NF-κB were measured in response to OSM while STAT3 and YAP1 levels were evaluated in response to LIF.
On the technique in general: A western blot detects proteins with antibodies after separation by electrophoresis.

The next experiment deals with MAPK (ERK 1/2). The experiment can be described thus: Western blot of MAPK (pERK 1/2) in OSM-stimulated pig articular chondrocytes. It counts as cell-based. As to the method: as §1
The next experiment deals with pNF-κB p65. The experiment can be described thus: Western blot of pNF-κB p65 in pig articular chondrocytes. As to conditions: pig articular chondrocytes, OSM, 24 hours. It is filed as cell-based. How it is done:
as §2

The subject of another experiment is YAP1. The experiment can be described thus: Western blot of YAP1 in LIF-treated pig articular chondrocytes. The settings on record: 4 and 24 hours. It counts as cell-based. As to the method: as §1, with “VA).” for “VA). Membranes were then incubated with primary antibodies p-gp130 Y814 (Evseenko lab, AbClonal), p-AKT (cat #4060, Cell Signaling), p-ERK 1/2 (cat #9106, Cell Signaling), p-Y416-SRC (cat #1246F, Novus Biologicals), p-gp130 (cat #1453R, Bioss USA) and p-NFκBp65 (cat #8242, Cell Signaling), and/or YAP1 (cat #4912, Cell Signaling). Histone H3 (cat #9515, Cell Signaling) was used as loading control.”
as §3

“Also recorded” adds a separate entry of the source.

Regarding `Cc1ccc(-c2csc(NC(=O)c3ccccn3)n2)cc1` [Peptide R805], in the experiment on STAT3, the “STAT3 signaling in diseased joint cells” value is listed as “minimally affected STAT3 signaling in a diseased joint”. Also, the “protein levels of pSRC after OSM stimulation” value in the experiment on pSRC is “markedly suppressed; also recorded: prevents pro-inflammatory signaling in OSM-stimulated pig articular chondrocytes”. In addition, the “pSTAT3 downstream of LIF” value with pSTAT3 is recorded as “minimal inhibitory effect; also recorded: does not affect pro-regenerative signaling downstream of gp130”. Also, the “MAPK (pERK 1/2) activation induced by OSM” value in the experiment on MAPK (ERK 1/2) is “markedly suppressed”. In addition, the “protein levels of pNF-κB p65 after OSM stimulation” value in the experiment with pNF-κB p65 is on record as “markedly suppressed”. Also, in the experiment on YAP1, the “YAP1 downstream of LIF” value is “minimal inhibitory effect”.
